According to US4746509A, “Transdermal medicament” (Rhone-Poulenc Sante, priority 1983, dated 1988):
Structures can show the parent of a compound that is named as a salt.

Experiment: Solubility in water
Type: physicochemical

solubility in water: soluble in water
Compound: CCCC(=O)Nc1ccc(OCC(O)CNC(C)C)c(C(C)=O)c1 (stereo not shown) [acebutolol hydrochloride]
